# Source: ChEMBL document CHEMBL1151260, “Expanding the ChemGPS chemical space with natural products” (J Nat Prod, 2005)
# Experiments:
# [1] = target: T1, Prostaglandin G/H synthase 1 (Homo sapiens, UniProt P23219)
# [2] = target: T1, Prostaglandin G/H synthase 1; assay: Inhibition of COX1 at 1000 uM
# [3] = tested on: RAW264.7; assay: Inhibition of COX2 protein expression in mouse RAW264.7 cells; assay type: functional, cell-based
# [4] = tested on: J774.A1; assay: Inhibition of COX2 protein expression in mouse J774A1 cells at 5 uM; assay type: functional
# [5] = tested on: SKGT4; assay: Inhibition of COX2 mRNA expression in human SKGT4 cells; assay type: functional, cell-based
# [6] = tested on: SKGT4; assay: Inhibition of COX2 protein expression in human SKGT4 cells; assay type: functional, cell-based
# [7] = target: T2, Prostaglandin G/H synthase 2 (Homo sapiens) (UniProt P35354); assay: Inhibition of COX2 at 2.5 ug/mL
# T2 sequence (whole entry): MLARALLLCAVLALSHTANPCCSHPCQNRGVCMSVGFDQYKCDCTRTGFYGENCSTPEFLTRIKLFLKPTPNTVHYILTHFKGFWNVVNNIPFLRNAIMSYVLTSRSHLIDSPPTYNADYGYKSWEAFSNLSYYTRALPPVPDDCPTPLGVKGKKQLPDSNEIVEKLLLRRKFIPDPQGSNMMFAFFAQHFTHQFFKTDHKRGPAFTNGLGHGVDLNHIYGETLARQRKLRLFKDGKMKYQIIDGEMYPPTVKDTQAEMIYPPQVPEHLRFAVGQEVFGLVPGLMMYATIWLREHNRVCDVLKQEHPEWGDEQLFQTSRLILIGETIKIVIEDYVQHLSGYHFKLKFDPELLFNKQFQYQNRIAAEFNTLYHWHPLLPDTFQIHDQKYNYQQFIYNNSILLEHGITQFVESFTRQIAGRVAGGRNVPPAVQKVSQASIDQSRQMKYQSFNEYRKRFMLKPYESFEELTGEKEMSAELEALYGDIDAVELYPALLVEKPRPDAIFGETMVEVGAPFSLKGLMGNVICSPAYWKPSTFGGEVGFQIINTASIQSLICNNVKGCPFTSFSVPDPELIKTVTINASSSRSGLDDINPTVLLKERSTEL
# [8] = target: T3, Prostaglandin G/H synthase 2 (Homo sapiens, UniProt P35354); assay: Inhibition of COX2 at 1000 uM
# T3 sequence (P35354 whole entry): T2 sequence (whole entry)
# [9] = target: T1, Prostaglandin G/H synthase 1; assay: Inhibition of COX1 at 2.5 ug/mL
# [10] = tested on: DLD-1; assay: Inhibition of COX2 mRNA expression in human DLD1 cells; assay type: functional, cell-based
# [11] = target: T2, Prostaglandin G/H synthase 2 (Homo sapiens); assay: Inhibition of COX2 at 313 uM
# [12] = tested on: J774.A1; assay: Inhibition of COX2 protein expression in mouse J774A1 cells; assay type: functional, cell-based
# [13] = target: T1, Prostaglandin G/H synthase 1; settings: 180 ug/mL
# Description: Inhibition of COX1 at 180 ug/mL
# [14] = target: T2, Prostaglandin G/H synthase 2 (Homo sapiens); assay: Inhibition of COX2 at 170 uM
# [15] = tested on: RAW264.7; assay: Inhibition of COX2 mRNA expression in mouse RAW264.7 cells; assay type: functional, cell-based
# [16] = target: T2, Prostaglandin G/H synthase 2 (Homo sapiens); assay: Inhibition of COX2 at 327 uM
# [17] = target: T2, Prostaglandin G/H synthase 2 (Homo sapiens); assay: Inhibition of COX2 at 25 uM
# [18] = target: T1, Prostaglandin G/H synthase 1; assay: Inhibition of COX1 at 30 ug/mL
# [19] = target: T1, Prostaglandin G/H synthase 1; assay: Inhibition of COX1 at 200 ug/mL
# [20] = target: T2, Prostaglandin G/H synthase 2 (Homo sapiens); assay: Inhibition of COX2 at 0.1 ug/mL
# [21] = target: T2, Prostaglandin G/H synthase 2 (Homo sapiens); assay: Inhibition of COX2 at 3.13 uM
# [22] = tested on: MCF-10A; assay: Inhibition of COX2 protein expression in human MCF10A cells; assay type: functional, cell-based
# T1 sequence (P23219 whole entry): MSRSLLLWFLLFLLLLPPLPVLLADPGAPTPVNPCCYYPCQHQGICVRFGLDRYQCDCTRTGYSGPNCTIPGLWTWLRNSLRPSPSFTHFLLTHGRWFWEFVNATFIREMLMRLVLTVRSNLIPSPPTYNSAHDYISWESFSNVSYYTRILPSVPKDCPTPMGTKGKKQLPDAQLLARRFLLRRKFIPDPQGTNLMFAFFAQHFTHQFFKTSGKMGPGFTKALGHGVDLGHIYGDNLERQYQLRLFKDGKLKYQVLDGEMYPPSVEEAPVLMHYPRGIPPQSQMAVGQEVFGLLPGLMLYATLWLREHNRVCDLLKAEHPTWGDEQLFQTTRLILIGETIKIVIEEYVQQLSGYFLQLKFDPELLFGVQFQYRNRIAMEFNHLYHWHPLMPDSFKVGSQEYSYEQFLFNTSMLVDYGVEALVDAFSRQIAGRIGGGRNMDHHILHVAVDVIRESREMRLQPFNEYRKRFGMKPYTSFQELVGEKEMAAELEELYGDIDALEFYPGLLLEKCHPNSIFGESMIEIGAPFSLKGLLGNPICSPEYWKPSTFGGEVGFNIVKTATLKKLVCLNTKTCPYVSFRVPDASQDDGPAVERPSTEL
Compound,IC50 [1] [µM],further results
C=C[C@@H](O)C#CC#C[C@@H](O)/C=C\CCCCCCC [FALCARINDIOL],66,–
Oc1cc(O)c2c(c1)O[C@H](c1ccc(O)c(O)c1)[C@@H](O)C2 [CIANIDANOL],80,–
COc1ccc2cc1Oc1ccc(cc1)C[C@H]1c3cc(c(OC)cc3CCN1C)Oc1c(O)c(OC)cc3c1[C@H](C2)N(C)CC3 [FANGCHINOLINE],129,–
O=c1cc(-c2ccc(O)cc2)oc2cc(O)cc(O)c12 [APIGENIN],–,inhibition [2]: 65%; IC50 [3]: 0.5 µM; inhibition at 5 µM [4]: 64%
CC/C=C/C/C=C/C/C=C/C/C=C/CC/C=C/COCC(=O)O,50,–
CCCCC/C=C\C/C=C\CCCCCCCC(=O)O [LINOLEIC ACID],13,–
O=c1c(O)c(-c2ccccc2)oc2cc(O)cc(O)c12 [GALANGIN],–,inhibition at 5 µM [4]: 59%
COc1cc(-c2cc(=O)c3c(O)c(OC)c(OC)c(O)c3o2)ccc1O,–,inhibition [2]: 37%
COc1cc(/C=C/C(=O)CC(=O)/C=C/c2ccc(O)c(OC)c2)ccc1O,–,Activity [5]: Dose-dependent effect; Activity [6]: Dose-dependent effect
C=C1C(=O)C(O)=C[C@@H]2[C@]3(C)CC[C@](C)(C(=O)CO)C[C@@H]3CC[C@]12C [AKENDO 3],34,–
CC(C)=CCc1c([C@@H]2CCc3ccc(O)cc3O2)cc2c(c1O)OC(C)(C)C=C2 [KAZINOL B],> 100,–
CC(C)=CCC12Oc3cc(O)ccc3C1(O)Oc1cc(O)c([C@H]3C=C(C)C[C@@H](c4ccc(O)cc4O)[C@@H]3C(=O)c3ccc(O)cc3O)c(O)c1C2=O (stereo partly specified) [SANGGENON D],59,–
C=C1CC/C=C(\C)C(=O)[C@H](OC(C)=O)[C@@H]2[C@@H]1CC2(C)C [BUDDLEDIN A],14,–
C=C1CCC[C@]2(C)CC[C@@H]([C@@](C)(O)CO)C[C@@]12O [KUTDTRIOL],39,–
C[C@@H]1O[C@@H](O[C@H]2[C@H](Oc3cc(O)c4c(=O)cc(-c5ccc(O)cc5)oc4c3)O[C@H](CO)[C@@H](O)[C@@H]2O)[C@H](O)[C@H](O)[C@H]1O,–,inhibition [7]: 20%
C=C1CCC[C@]2(C)CC[C@@H]([C@@](C)(O)CO)C[C@]12O,1.3,–
COc1cc2ccc(=O)oc2c(O)c1O [FRAXETIN],524,–
O=C(O)[C@H]1O[C@@H](Oc2c(-c3cc(O)c(O)c(O)c3)oc3cc(O)cc(O)c3c2=O)[C@H](O)[C@@H](O)[C@@H]1O,10,–
OC[C@H]1O[C@@H](OCCc2ccc(O)cc2)[C@H](O)[C@@H](O)[C@@H]1O [SALIDROSIDE],72,–
COc1cc2oc(-c3ccc(O)cc3)cc(=O)c2c(O)c1OC [CIRSIMARITIN],–,IC50 [8]: 6%

Compound,IC50 [1] [µM],further results
CC(C)=CCc1c(O)ccc2ccc(=O)oc12 [OSTHENOL],64,–
Cc1ccc(C(C)C)cc1O [CARVACROL],4,–
O=C(/C=C/c1ccc(O)c(O)c1)OCCc1ccccc1 [CAFFEIC ACID PHENETHYL ESTER],58,–
CC/C=C/C/C=C/C/C=C/C/C=C/CCSCCCC(=O)O,81,–
C[C@@H]1OC(O[C@@H]2[C@@H](O)[C@H](OCCc3ccc(O)c(O)c3)O[C@H](CO[C@@H]3OC[C@](O)(CO)[C@H]3O)[C@H]2OC(=O)/C=C/c2ccc(O)c(O)c2)[C@H](O[C@@H]2OC[C@H](O)[C@H](O)[C@H]2O)[C@H](O)[C@H]1O (stereo partly specified) [BALLOTETROSIDE],1000,–
O=c1ccc2ccc(O)c(O)c2o1 [DAPHNETIN],140,–
O=C(/C=C/c1ccc(O)c(O)c1)O[C@H](Cc1ccc(O)c(O)c1)C(=O)O,–,inhibition [2]: 58%
COc1cc(/C=C/CO)ccc1O[C@@H]1O[C@H](CO)[C@@H](O)[C@H](O)[C@H]1O [CONIFERIN],75,–
COc1cc(-c2cc(=O)c3cc(OC)c(OC)cc3o2)ccc1O,–,inhibition [2]: 37%
CC(C)=CCC/C(C)=C\CC1=CC(=O)C=C(C)C1=O,64,–
C[C@@H]1CC(=O)[C@]2(CO)[C@H](CCC[C@]23CO3)[C@@]12C[C@@H](c1ccoc1)OC2=O [GNAPHALIN],40,–
O=c1c(O)c(-c2ccc(O)c(O)c2)oc2cc(O)cc(O)c12,–,inhibition [7]: 40%; inhibition [9]: 90%; Activity [10]: Dose-dependent effect
CC(/C=C/C=C(\C)C(=O)O)=C\C=C\C=C(C)\C=C\C=C(/C)C(=O)O [TRANSCROCETIN],28,–
Oc1cc(O)c2c(c1)O[C@H](c1ccc(O)c(O)c1)[C@H](O)C2 [(-)-EPICATECHIN],–,IC50 [10]: 415 µM
COc1c(O)cc([C@@H]2Oc3cc(O)cc(O)c3C[C@H]2O)cc1O,12,inhibition [11]: 61%
C=C(C)[C@H](CC=C(C)C)Cc1c(O)cc(OC)c(C(=O)/C=C/c2ccc(O)cc2O)c1O [KURAIDIN],0.6,–
COc1cc(/C=C/CO)cc(OC)c1O[C@@H]1O[C@H](CO)[C@@H](O)[C@H](O)[C@H]1O [SYRINGIN],36,–
O=C1C[C@@H](c2ccc(O)cc2)Oc2cc(O)cc(O)c21,–,Activity [12]: Dose-dependent effect
CC(=O)Oc1ccccc1C(=O)O,–,inhibition [2]: 46%; inhibition [13]: 52%
COc1c(O)cc([C@H]2Oc3c(c(O)cc(O)c3[C@H]3c4c(O)cc(O)cc4O[C@H](c4ccc(O)cc4)[C@@H]3O)C[C@H]2O)cc1O [OURATEAPROANTHOCYANIDIN A],138,inhibition [14]: 37%

Compound,IC50 [1] [µM],further results
O=c1c(O)c(-c2ccc(O)cc2)oc2cc(O)cc(O)c12 [KAEMPFEROL],–,IC50 [15]: < 15 µM
O=c1c(-c2ccc(O)cc2)coc2cc(O)cc(O)c12 [GENISTEIN],80,–
O=c1c(O[C@@H]2O[C@H](CO)[C@@H](O)[C@H](O)[C@H]2O)c(-c2ccc(O)c(O)c2)oc2cc(O)cc(O)c12,–,inhibition [7]: 25%
Oc1cc(O)c2c(c1)O[C@H](c1cc(O)c(O)c(O)c1)[C@@H](O)C2 [GALLOCATECHIN],95,inhibition [16]: 46%
O=C(O[C@@H]1Cc2c(O)cc(O)cc2O[C@@H]1c1cc(O)c(O)c(O)c1)c1cc(O)c(O)c(O)c1,–,inhibition [17]: 13%; inhibition [18]: 51%
C=CCc1ccc(OC(C)=O)c(OC)c1 [EUGENYL ACETATE],3,–
CC1(C)CC[C@]2(C)CC[C@]3(C)[C@H]4CC=C5[C@@H](CCC(=O)C5(C)C)[C@]4(C)CC[C@@]3(C)[C@@H]2C1 [GLUTINONE],3.6,–
COc1cc(O[C@@H]2O[C@H](CO)[C@@H](O)[C@H](O)[C@H]2O)cc2oc(-c3ccc(O)cc3)cc(=O)c12,–,inhibition [19]: 13%
CC(C)[C@@H]1CC[C@@H](C)C[C@H]1O,–,inhibition [20]: 60%
COc1c(O)cc([C@H]2Oc3cc(O)cc(O)c3C[C@H]2O)cc1O,3.3,inhibition [21]: 23%
COc1cc(CNC(=O)CCCC/C=C/C(C)C)ccc1O [CAPSAICIN],3.8,–
C=C(C)C(CC=C(C)C)Cc1c(O)cc(OC)c2c1O[C@H](c1ccc(O)cc1O)CC2=O (stereo partly specified) [KURARINONE],0.6,–
O=C(CCc1ccc(O)c(O)c1)C[C@@H](O)CCc1ccc(O)c(O)c1,–,Activity [22]: Dose-dependent effect
CC(C)=CCc1c(-c2ccc(O)cc2O)oc2c(CC=C(C)C)c(O)cc(O)c2c1=O [KUWANON C],62,–
CC(C)=CCC12Oc3cc(O)c(C4=CC5(C)CC(C4)c4ccc(O)cc4O5)c(O)c3C(=O)C1(O)Oc1cc(O)ccc12 (stereo unspecified) [SANGGENON B],42,–
C=C[C@@H](O)C#CC#C[C@@H](O)/C=C/CCCCCCCC(=O)OC(C)=O,73,–
O=c1cc(-c2ccc(O)c(O)c2)oc2cc(O)cc(O)c12,–,inhibition [9]: 75%
CC(=O)[C@H]1CC[C@]2(C)CC[C@@H]([C@](C)(O)CO)C[C@]12O [LUCINONE],43,–
C=CCc1ccc(O)c(OC)c1 [EUGENOL],11,inhibition [2]: 97%
